# In US9428540B2, “Fatty acid esters of glucocorticoids as anti-inflammatory and anti-cancer agents” (priority 2007, dated 2016):
# Where two headings read alike, the source gives them in different places.
# Experiments:
# [1] = tested on: LUC reporter gene under the control of the PPARα 5′-flanking and promoter region; experiment: LUC reporter gene activity in transiently transfected COS-1 cells (pMT-hGR); assay type: cell-based, Monkey; parameters: gene activation less than fluticasone propionate / luciferase activity/β-galactosidase (in percent (%) of Fluticasone propionate): concentration or dose not given beside the values; conditions: for luciferase activity/β-galactosidase (in percent (%) of Fluticasone propionate): COS-1 cells, harvested after 72 h
# Protocol: Monkey kidney COS-1 cells (ATCC CRL 1650) were grown in Dulbecco's modified Eagle's medium (Gibco BRL, Grand Island, N.Y.) as described elsewhere (9). Transient transfections of COS-1 cells were performed as described elsewhere (10). The cells were plated at a density of 2×10^5 cells/well. Each well received 5 μg test plasmid, 5 μg β-galactosidase control plasmid as an internal control and either 2 μg expression plasmid, pMT-hGR or pGL3-basic as carrier. Plasmid details: The mouse PPARα gene is described elsewhere (11). Vectors expressing the LUC reporter gene under the control of the PPARα5′-flanking and promoter region were constructed in the pGL3-LUC vector (Promega). The PPARα 5′-flanking sequence between −2800 bp and +100 bp was cloned into NheI digested pGL3-LUC to generate the PPAR (−2800/+100) LUC plasmid Each transfection was performed in triplicates. The cells were transfected 24 h after plating together with fresh medium containing ligand. After 72 h cells were harvested, cytosol extracts were prepared and LUC activities were measured according to the Promega protocol. Results were normalized against β-galactosidase activities measured by incubating 100 μl extract with 0.28 mg o-nitrophenyl-D-galactoside (ONPG) in 50 mM phosphate buffer pH 7.0, 10 mM KCl, 1 mM MgCl2 for 30 min at 30° C. and reading absorbance at 420 nm.
# [2] = tested on: GRE-luciferase; experiment: Induction of GRE-luciferase activity in stably transfected A549 GRE-luciferase cells; assay type: cell-based
# [3] = tested on: GM-CSF release; experiment: Inhibition of IL-1β-stimulated GM-CSF release in A549 TRE cells; assay type: cell-based; conditions: for IC50: IL-1β-stimulated, 24 hours exposure; for fold more potent inhibition of GM-CSF release compared to fluticasone propionate: versus fluticasone propionate
# Protocol: IL-1β-stimulation causes an increase in granulocyte-macrophage colony-stimulating factor (GM-CSF) release after 24 hours in A549 TRE (AP-1 regulation) cells. Inhibition of the GM-CSF release is measured after 24 hours exposure to a test compound.
# [4] = tested on: THP-1 cells; experiment: CellTiter 96 Non-Radioactive cell proliferation (MTS) assay, 48 h; assay type: cell-based, human; conditions: for IC50: THP1 cells, 48 hours incubation, read-out: THP1 cells, IC50 μM ± SD
# Protocol: (§1) The U937 and THP-1 cell lines were seeded, 20 000 cells per well, in 96-well-plates. 50 μl cell culture medium was added to each well. At the same time test compounds were added in 5 different concentrations and incubated for 48 hours. The CellTiter 96® Non-Radioactive cell proliferation assay (Promega) was used to study the cytotoxicity of test compounds in these cells. This assay is a colorimetric method for determining the number of viable cells in proliferation or chemosensitivity assays. It is composed of solutions of a novel tetrazolium compound (3-(4,5-dimethylthiazol-2-yl)-5-(3-carboxymethoxyphenyl)-2-(4-sulfophenyl)-2H-tetrazolium, inner salt; MTS) and an electron coupling reagent (phenazine methosulfate; PMS). MTS is bioreduced by cells into a formazan product that is soluble in tissue culture medium. The absorbance of the formazan at 490 nm can be measured directly from 96 well assay plates without additional processing. The quantity of formazan product as measured by the amount of 490 nm absorbance is directly proportional to the number of living cells in culture (IC50 values). The test compounds were fluticasone propionate and fluticasone elaidic acid derivative.
# [5] = tested on: U937 cells; experiment: as above; assay type: cell-based, human; conditions: for IC50: read-out: U937 cells, IC50 μM ± SD
# Protocol: as §1
# [6] = listed as fluticasone elaidic acid ester derivative
Compound,luciferase activity/β-galactosidase (in percent (%) of Fluticasone propionate) [1] [%],luciferase activity/β-galactosidase (in percent (%) of Fluticasone propionate) ([1]; listed as flumethasone elaidic acid ester derivative) [%],effect on GRE-luciferase activity [2],IC50 [3] [nM],fold more potent inhibition of GM-CSF release compared to fluticasone propionate [3] [fold],fold more potent inhibition of GM-CSF release compared to fluticasone propionate ([3]; listed as flucticasone elaidic acid ester derivative),"fold more potent inhibition of GM-CSF release compared to fluticasone propionate [3, 6] [fold]",IC50 [4] [µM],IC50 ([5]; 48 hours incubation) [µM],luciferase activity/β-galactosidase (in percent (%) of Fluticasone propionate) ([1]; listed as Fluticasone elaidic acid ester derivative) [%],"luciferase activity/β-galactosidase (in percent (%) of Fluticasone propionate) [1, 6] [%]",gene activation less than fluticasone propionate ([1]; activation as a measure for side effects) [%],fold decrease in side effects (activation of GRE elements) ([1]; versus fluticasone propionate) [fold],"EC50 ([2]; Homo sapiens, read-out: EC50 of induction of GRE-luciferase reporter activity) [nM]",IC50 ([3]; Homo sapiens) [nM],"IC50 ([4]; Homo sapiens, THP-1) [µM]",activity in THP1 cells (resistance) ([4]; up to 100 μM),"IC50 ([5]; Homo sapiens, U-937, 48 hours incubation) [µM]",activity in U937 cells (resistance) ([5]; up to 100 μM)
"6α,9α-Difluoro-16α-elaidoyloxy-11β-hydroxy-16α-methyl-3-oxoandrosta-1,4-diene-17β-carboxylic acid",2,2,,,,,,,,,,,,,,,,,
CCCCCCCCC=CCCCCCCCC(=O)OC1(C(=O)SCF)C(C)CC2C3CC(F)C4=CC(=O)C=CC4(C)C3(F)C(O)CC21C (centres unmarked) [Fluticasone elaidic acid derivative],,,lack of effect,0.014,22,more than 20 fold,22,10,1,15,15,85,7,,,,,,
"CCC(=O)O[C@]1(C(=O)SCF)[C@H](C)C[C@H]2[C@@H]3C[C@H](F)C4=CC(=O)C=C[C@]4(C)[C@@]3(F)[C@@H](O)C[C@@]21C [Fluticasone propionate, reference compound]",100,,,,,,,,,,,,,0.51,0.31,> 100,no activity seen up to 100 μM,> 100,no activity seen up to 100 μM
